Measured values taken from patent publication US20140357620A1, “METHOD FOR ADMINISTRATION OF A GAMMA SECRETASE INHIBITOR” (Hoffmann-La Roche Inc., priority 2011, published 2014).
Like-named read-outs stand apart in the source and are kept apart here.

Assays:
[1] = set-up: species or system patients; settings: human, in vivo
Experimental: If deemed safe, then dose escalation to dose intensities at and above that given in the 3-4 schedule at 270 mg/day will be performed. For safety reasons, the first cohorts of patients enrolled in schedules C, D, E and F will be treated with lower doses (dose level 1: 14% to 37% of dose intensity of 3-4 schedule at 270 mg). Then in the subsequent cohorts, the dose will be escalated by 50%-100%.

[2] = ongoing first phase 1 trial of Compound A (pharmacokinetics); set-up: species or system patients; settings: human, in vivo, oral
Source text: This schedule (C) includes 11 dosing days in a 3-week cycle.

Structure (SMILES): CC(C)(C(=O)NCC(F)(F)C(F)(F)F)C(=O)N[C@@H]1C(=O)Nc2ccccc2-c2ccccc21 [Compound A, 2,2-dimethyl-N-((S)-6-oxo-6,7-dihydro-5H-dibenzo[b,d]azepin-7-yl)-N′-(2,2,3,3,3-pentafluoro-propyl)-malonamide]
- highest safe dose tested so far [1]: 270 mg/day
- half-life ([2]; mean, read-out: mean terminal half-life (converted)): 42.2 h
- half-life ([2]; range, read-out: terminal half-life (range)): 10 to 93 h
